We go through 30 compounds from US20250368627A1, “PYRAZOLESULFONAMIDES AS ANTITUMOR AGENTS” (Peloton Therapeutics, Inc., a fully owned subsidiary of …, priority 2019, published 2025).

By EC50 is commonly meant the concentration giving half of the maximal effect. For orientation: IC50 means the concentration that inhibits the measured activity by half.

Test [1] deals with HCT116 human colorectal carcinoma cells. As to the kind of experiment: CellTiter-Glo Luminescent Cell Viability Assay. In kind it is cell-based. The note with it: HCT-116, 72 h, 3 days. The essentials:
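CellTiter-Glo luminescence gave viability after 3 days of compound exposure in HCT116 cells grown in DMEM/10% FBS. Final concentrations ran from 5 to 0.0002 […] in 1:3 steps, each in triplicate, with IC50 derived from the curves.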
In general terms: ATP-based viability assays read luminescence as a measure of living cells.

Test [2] concerns the target T1, DDB1DB/DCAF15 and RBM39 R1R2 complex (Homo sapiens, UniProt Q14498+Q66K64).
T1 construct: Amino acids 150 to 331 of RBM39 were cloned into pGEX4T3; GST (from vector pGEX4T3); TEV cleavage site (N); made in house; host or cells: DDB1DB/His-DCAF15: baculovirus/Sf9 co-expression; RBM39 R1R2: E. coli (pGEX4T3)
Description: DCAF15 RBM39 Complex Formation Assay (FRET). In kind it is binding. The note with it: FRET ratio Em 665/Em 615, incubated overnight at 4° C. A digest of the protocol: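 Ternary complex formation read by TR-FRET (Em 665/615, excitation 340 nm) after overnight incubation at 4° C of 20 nM baculovirus DDB1DB/His-DCAF15 and 50 nM E. coli RBM39 RRM1-RRM2 FLAG fragment with 14-point, 3-fold compound dilutions from 1 μM; EC50 from 4-parameter fit.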

T1 sequence (Q66K64 whole entry, the tested form may be a part): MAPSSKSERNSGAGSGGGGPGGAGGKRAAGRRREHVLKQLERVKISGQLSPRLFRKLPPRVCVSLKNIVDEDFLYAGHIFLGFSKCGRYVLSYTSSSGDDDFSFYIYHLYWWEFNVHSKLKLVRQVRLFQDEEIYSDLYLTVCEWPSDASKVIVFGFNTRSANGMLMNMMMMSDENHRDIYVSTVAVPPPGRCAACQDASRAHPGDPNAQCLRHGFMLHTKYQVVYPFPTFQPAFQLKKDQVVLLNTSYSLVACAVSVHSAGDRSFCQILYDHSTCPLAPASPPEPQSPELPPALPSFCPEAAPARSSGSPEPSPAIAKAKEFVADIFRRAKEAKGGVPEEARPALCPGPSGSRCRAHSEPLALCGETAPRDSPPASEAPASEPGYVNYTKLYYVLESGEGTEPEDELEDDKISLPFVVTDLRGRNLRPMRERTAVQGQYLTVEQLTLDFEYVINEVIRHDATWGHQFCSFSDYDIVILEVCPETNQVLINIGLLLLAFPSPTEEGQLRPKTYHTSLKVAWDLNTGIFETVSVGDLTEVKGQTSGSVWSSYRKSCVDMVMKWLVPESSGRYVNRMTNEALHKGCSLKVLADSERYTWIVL
T1 sequence (Q14498 150-331): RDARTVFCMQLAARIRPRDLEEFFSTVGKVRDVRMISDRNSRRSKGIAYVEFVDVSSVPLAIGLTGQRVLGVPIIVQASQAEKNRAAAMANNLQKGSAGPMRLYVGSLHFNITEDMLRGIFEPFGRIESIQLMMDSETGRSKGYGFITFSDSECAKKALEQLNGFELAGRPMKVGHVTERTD
T1 sequence (Q16531 with tags, fused parts or gaps DEL396-708 partner): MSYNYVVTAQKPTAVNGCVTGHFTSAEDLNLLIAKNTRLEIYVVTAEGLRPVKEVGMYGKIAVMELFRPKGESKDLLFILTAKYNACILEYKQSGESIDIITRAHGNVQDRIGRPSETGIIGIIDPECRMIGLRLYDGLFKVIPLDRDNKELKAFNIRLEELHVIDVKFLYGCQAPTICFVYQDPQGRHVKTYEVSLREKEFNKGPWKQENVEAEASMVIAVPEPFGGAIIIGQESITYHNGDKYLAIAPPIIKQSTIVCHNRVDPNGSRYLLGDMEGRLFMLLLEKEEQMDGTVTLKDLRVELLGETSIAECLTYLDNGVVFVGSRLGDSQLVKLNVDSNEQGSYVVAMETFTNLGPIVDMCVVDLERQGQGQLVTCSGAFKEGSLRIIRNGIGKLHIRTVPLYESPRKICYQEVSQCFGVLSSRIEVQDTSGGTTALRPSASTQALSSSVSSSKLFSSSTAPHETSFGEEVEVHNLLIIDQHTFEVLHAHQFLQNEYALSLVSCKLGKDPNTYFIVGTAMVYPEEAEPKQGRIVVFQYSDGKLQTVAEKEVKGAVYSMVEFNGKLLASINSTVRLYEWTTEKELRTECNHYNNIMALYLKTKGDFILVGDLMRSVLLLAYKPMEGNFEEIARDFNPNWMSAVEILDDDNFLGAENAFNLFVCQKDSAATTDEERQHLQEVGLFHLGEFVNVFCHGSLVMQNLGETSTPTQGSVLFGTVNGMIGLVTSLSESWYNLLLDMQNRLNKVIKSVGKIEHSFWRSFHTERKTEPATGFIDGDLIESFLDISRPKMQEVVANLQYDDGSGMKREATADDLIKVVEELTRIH

Take `N#Cc1c[nH]c2c(NS(=O)(=O)c3cnn(C4(CO)COC4)c3)ccc(Cl)c12` [Compound 165, N-(4-chloro-3-cyano-1H-indol-7-yl)-1-[3-(hydroxymethyl)oxetan-3-yl]pyrazole-4-sulfonamide]: the EC50 in test [1] was in the range of 250 to 1000 nM. Further, the IC50 in test [2] is less than 250 nM.
For `O=S(=O)(Nc1ccc(Cl)c2c(Cl)c[nH]c12)c1cnn(C(CO)(CO)CCl)c1` [Compound 166, 1-[1-(chloromethyl)-2-hydroxy-1-(hydroxymethyl)ethyl]-N-(3,4-dichloro-1H-indol-7-yl)pyrazole-4-sulfonamide], the EC50 in test [1] is 250 to 1000 nM. For the same compound, the IC50 in test [2] is less than 250 nM.
In the case of `O=S(=O)(Nc1ccc(Cl)c2c(Cl)c[nH]c12)c1cnn(C2(CO)COC2)c1` [Compound 167, N-(3,4-dichloro-1H-indol-7-yl)-1-[3-(hydroxymethyl)oxetan-3-yl]pyrazole-4-sulfonamide], the EC50 in test [1] fell in the range of 250 to 1000 nM. For the same compound, the IC50 in test [2] is less than 250 nM.
For `COC(=O)C(C)(C)n1cc(S(=O)(=O)Nc2ccc(Cl)c3c(Cl)c[nH]c23)cn1` [Compound 168, methyl 2-[4-[3,4-dichloro-1H-indol-7-yl)sulfamoyl]pyrazol-1-yl]-2-methyl-propanoate] the same measures were 250 to 1000 nM and less than 250 nM.
As to `COC(=O)C(C)(C)n1cc(S(=O)(=O)Nc2ccc(Cl)c3c(C#N)c[nH]c23)cn1` [Compound 169, methyl 2-[4-[(4-chloro-3-cyano-1H-indol-7-yl)sulfamoyl]pyrazol-1-yl]-2-methyl-propanoate], in test [1], the EC50 fell in the range of 250 to 1000 nM. Also, in test [2], the IC50 is less than 250 nM.
As for `CC(C)(CO)n1cc(S(=O)(=O)Nc2ccc(Cl)c3c(Cl)c[nH]c23)cn1` [Compound 170, N-(3,4-dichloro-1H-indol-7-yl)-1-(2-hydroxy-1,1-dimethyl-ethyl)pyrazole-4-sulfonamide], in test [1], the EC50 lay in the range of 250 to 1000 nM. Also, the IC50 in test [2] was less than 250 nM.
The matching figures for `CC(C)(CO)n1cc(S(=O)(=O)Nc2ccc(Cl)c3c(C#N)c[nH]c23)cn1` [Compound 171, N-(4-chloro-3-cyano-1H-indol-7-yl)-1-(2-hydroxy-1,1-dimethyl-ethyl)pyrazole-4-sulfonamide]: less than 250 nM and less than 250 nM.
The matching figures for `CC(CO)n1cc(S(=O)(=O)Nc2ccc(Cl)c3c(Cl)c[nH]c23)cn1` (stereo not drawn) [Compound 172, N-(3,4-dichloro-1H-indol-7-yl)-1-(2-hydroxy-1-methyl-ethyl)pyrazole-4-sulfonamide]: 250 to 1000 nM and less than 250 nM.
`CC(CO)(CO)n1cc(S(=O)(=O)Nc2ccc(Cl)c3c(Cl)c[nH]c23)cn1` [Compound 173, N-(3,4-dichloro-1H-indol-7-yl)-1-[2-hydroxy-1-(hydroxymethyl)-1-methyl-ethyl]pyrazole-4-sulfonamide]: the EC50 in test [1] was less than 250 nM. Moreover, the IC50 in test [2] was less than 250 nM.
For the compound `N#Cc1c[nH]c2c(NS(=O)(=O)c3cnn([C@H]4C[C@@H](O)C4)c3)ccc(Cl)c12` [Compound 174, N-(4-chloro-3-cyano-1H-indol-7-yl)-1-(3-hydroxycyclobutyl)pyrazole-4-sulfonamide], in test [1], the EC50 is 250 to 1000 nM. The IC50 in test [2] is less than 250 nM.
For `N#Cc1c[nH]c2c(NS(=O)(=O)c3cnn([C@H]4C[C@H](O)C4)c3)ccc(Cl)c12` [Compound 175, N-(4-chloro-3-cyano-1H-indol-7-yl)-1-(3-hydroxycyclobutyl)pyrazole-4-sulfonamide], the EC50 in test [1] fell in the range of 250 to 1000 nM. Moreover, the IC50 in test [2] was less than 250 nM.
The matching figures for `O=S(=O)(Nc1ccc(Cl)c2c(Cl)c[nH]c12)c1cnn(C(CO)CO)c1` [Compound 176, N-(3,4-dichloro-1H-indol-7-yl)-1-[2-hydroxy-1-(hydroxymethyl)ethyl]pyrazole-4-sulfonamide]: 250 to 1000 nM and less than 250 nM.
As to `CC(C)(O)Cn1cc(S(=O)(=O)Nc2ccc(Cl)c3c(Cl)c[nH]c23)cn1` [Compound 177, N-(3,4-dichloro-1H-indol-7-yl)-1-(2-hydroxy-2-methyl-propyl)pyrazole-4-sulfonamide], the EC50 in test [1] was 250 to 1000 nM. In test [2], the IC50 is less than 250 nM.
As for `CC(C)(N)Cn1cc(S(=O)(=O)Nc2ccc(Cl)c3c(C#N)c[nH]c23)cn1` [Compound 178, 1-(2-amino-2-methyl-propyl)-N-(4-chloro-3-cyano-1H-indol-7-yl)pyrazole-4-sulfonamide], in test [1], the EC50 was more than 1000 nM. In addition, in test [2], the IC50 is less than 250 nM.
On to `N#Cc1c[nH]c2c(NS(=O)(=O)c3cnn(CC4(O)CCC4)c3)ccc(Cl)c12` [Compound 179, N-(4-chloro-3-cyano-1H-indol-7-yl)-1-[(1-hydroxycyclobutyl)methyl]pyrazole-4-sulfonamide], for which, in test [1], the EC50 is 250 to 1000 nM. Further, the IC50 in test [2] is less than 250 nM.
`Cn1ncc(S(=O)(=O)Nc2ccc(Cl)c3c(C#N)c[nH]c23)c1N` [Compound 180, 5-amino-N-(4-chloro-3-cyano-1H-indol-7-yl)-1-methyl-pyrazole-4-sulfonamide]: in test [1], the EC50 was less than 250 nM. Further, the IC50 in test [2] was less than 250 nM.
Regarding `CS(=O)(=O)Cn1cc(S(=O)(=O)Nc2ccc(Cl)c3c(Cl)c[nH]c23)cn1` [Compound 181, N-(3,4-dichloro-1H-indol-7-yl)-1-(methylsulfonylmethyl)pyrazole-4-sulfonamide], the EC50 in test [1] was less than 250 nM. The IC50 in test [2] is less than 250 nM.
With `CS(=O)(=O)Cn1cc(S(=O)(=O)Nc2ccc(Cl)c3c(C#N)c[nH]c23)cn1` [Compound 182, N-(4-chloro-3-cyano-1H-indol-7-yl)-1-(methylsulfonylmethyl)pyrazole-4-sulfonamide], in test [1], the EC50 lay in the range of 250 to 1000 nM. Besides, the IC50 in test [2] is less than 250 nM.
Consider `N#Cc1c[nH]c2c(NS(=O)(=O)c3cnn(CC4(C#N)CC4)c3)ccc(Cl)c12` [Compound 183, N-(4-chloro-3-cyano-1H-indol-7-yl)-1-[(1-cyanocyclopropyl)methyl]pyrazole-4-sulfonamide], for which the EC50 in test [1] lay in the range of 250 to 1000 nM. The IC50 in test [2] is less than 250 nM.
For the compound `N#Cc1c[nH]c2c(NS(=O)(=O)c3cnn(CC4(O)CCOCC4)c3)ccc(Cl)c12` [Compound 184, N-(4-chloro-3-cyano-1H-indol-7-yl)-1-[(4-hydroxytetrahydropyran-4-yl)methyl]pyrazole-4-sulfonamide], the EC50 in test [1] was more than 1000 nM. For the same compound, the IC50 in test [2] is less than 250 nM.
For the compound `CC(C)(O)Cn1ncc(S(=O)(=O)Nc2ccc(Cl)c3c(C#N)c[nH]c23)c1F` [Compound 188, N-(4-chloro-3-cyano-1H-indol-7-yl)-5-fluoro-1-(2-hydroxy-2-methyl-propyl)pyrazole-4-sulfonamide], the EC50 in test [1] lay within 250 to 1000 nM. The IC50 in test [2] is less than 250 nM.
`COC1CC(n2cc(S(=O)(=O)Nc3ccc(Cl)c4c(C#N)c[nH]c34)cn2)C1` (stereo not drawn) [Compound 189, N-(4-chloro-3-cyano-1H-indol-7-yl)-1-(3-methoxycyclobutyl)pyrazole-4-sulfonamide]: in test [1], the EC50 lay within 250 to 1000 nM. The IC50 in test [2] is less than 250 nM.
Take `COC1CC(n2cc(S(=O)(=O)Nc3cccc4c(Cl)c[nH]c34)cn2)C1` (stereo not drawn) [Compound 190, N-(3-chloro-1H-indol-7-yl)-1-(3-methoxycyclobutyl)pyrazole-4-sulfonamide]: the EC50 in test [1] was 250 to 1000 nM. Besides, the IC50 in test [2] is less than 250 nM.
In the case of `N#Cc1c[nH]c2c(NS(=O)(=O)c3cnn(C4(CO)CCC4)c3)ccc(Cl)c12` [Compound 191, N-(4-chloro-3-cyano-1H-indol-7-yl)-1-[1-(hydroxymethyl)cyclobutyl]pyrazole-4-sulfonamide], the EC50 in test [1] is less than 250 nM. Further, in test [2], the IC50 is less than 250 nM.
In the case of `CC(C)(O)Cn1cc(S(=O)(=O)Nc2ccc(F)c3c(C#N)c[nH]c23)cn1` [Compound 192, N-(3-cyano-4-fluoro-1H-indol-7-yl)-1-(2-hydroxy-2-methyl-propyl)pyrazole-4-sulfonamide], the EC50 in test [1] was more than 1000 nM. Also, the IC50 in test [2] is less than 250 nM.
For the compound `Cc1ccc(NS(=O)(=O)c2cnn([C@H]3C[C@@H](O)C3)c2)c2[nH]cc(C#N)c12` [Compound 193, N-(3-cyano-4-methyl-1H-indol-7-yl)-1-(3-hydroxycyclobutyl)pyrazole-4-sulfonamide], the EC50 in test [1] was 250 to 1000 nM. Also, the IC50 in test [2] is less than 250 nM.
As to `O=S(=O)(Nc1cccc2c(Cl)c[nH]c12)c1cnn([C@H]2C[C@@H](O)C2)c1` [Compound 194, N-(3-chloro-1H-indol-7-yl)-1-(3-hydroxycyclobutyl)pyrazole-4-sulfonamide], the EC50 in test [1] was more than 1000 nM. For the same compound, the IC50 in test [2] was less than 250 nM.
With `N#Cc1c[nH]c2c(NS(=O)(=O)c3cnn(CC4(CO)CC4)c3)ccc(Cl)c12` [Compound 195, N-(4-chloro-3-cyano-1H-indol-7-yl)-1-[[1-(hydroxymethyl)cyclopropyl]methyl]pyrazole-4-sulfonamide], the EC50 in test [1] is 250 to 1000 nM. For the same compound, the IC50 in test [2] was less than 250 nM.
The matching figures for `C[C@H](O)Cn1cc(S(=O)(=O)Nc2ccc(Cl)c3c(C#N)c[nH]c23)cn1` [Compound 196, N-(4-chloro-3-cyano-1H-indol-7-yl)-1-[(2S)-2-hydroxypropyl]pyrazole-4-sulfonamide]: 250 to 1000 nM and less than 250 nM.
Consider `C[C@@H](O)Cn1cc(S(=O)(=O)Nc2ccc(Cl)c3c(C#N)c[nH]c23)cn1` [Compound 197, N-(4-chloro-3-cyano-1H-indol-7-yl)-1-[(2R)-2-hydroxypropyl]pyrazole-4-sulfonamide], for which the EC50 in test [1] fell in the range of 250 to 1000 nM. For the same compound, in test [2], the IC50 was less than 250 nM.
